The supplement of paper PMC10307832

Experiments:
Assay in all cases: relative viability (nuclei count vs DMSO), 5 days (fraction); higher = more cells survive
[1] = compound: COc1cc(-c2nn([C@H]3CC[C@H](N4CCN(C(C)=O)CC4)CC3)c3ncnc(N)c23)ccc1NC(=O)c1cc2ccccc2n1C
Method in brief: (§1)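 Viability was defined as treated-well nuclei divided by vehicle-well nuclei, with the median taken over replicate plates. Cells from lung cancer lines sat overnight at 37 °C in 1536-well plates, received five √10-spaced library-drug doses by pinning on vehicle-anchored plates, and grew 5 days without medium change before one-step fixation, permeabilisation and Hoechst staining, 4× imaging and MetaXpress nuclear counts. Only plates with control CV under 25% and at least one doubling were kept.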

[2] = compound: CO[C@@H]1[C@H](N(C)C(=O)c2ccccc2)C[C@H]2O[C@]1(C)n1c3ccccc3c3c4c(c5c6ccccc6n2c5c31)C(=O)NC4 [Midostaurin]
Method in brief: as §1

[3] = compound: CO[C@@H]1[C@H](N(C)C(=O)c2ccccc2)C[C@H]2O[C@]1(C)n1c3ccccc3c3c4c(c5c6ccccc6n2c5c31)C(=O)NC4 [Midostaurin] + CS(=O)(=O)N1CCN(Cc2cc3nc(-c4cccc5[nH]ncc45)nc(N4CCOCC4)c3s2)CC1 [Pictilisib] (partner 1 µM)
Method in brief: (§2)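 Cells from lung cancer lines were seeded into 1536-well plates and, one day later, dosed by pin tool. Treatments were either a single drug or a fixed dose of an anchor drug with five library-drug doses (not always all listed) in √10 steps. After 5 days, nuclei were stained in a one-step fixation (final 0.05% Triton X-100, 1% formaldehyde, 1 ug/ml Hoechst) and counted on 4× images, and relative viability is the treated-to-vehicle nuclei ratio, as the median of duplicate plates.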

[4] = compound: COc1cc(-c2nn([C@H]3CC[C@H](N4CCN(C(C)=O)CC4)CC3)c3ncnc(N)c23)ccc1NC(=O)c1cc2ccccc2n1C + CS(=O)(=O)CCNCc1ccc(-c2ccc3ncnc(Nc4ccc(OCc5cccc(F)c5)c(Cl)c4)c3c2)o1 [Lapatinib] (partner 2 µM)
Method in brief: as §2

[5] = compound: COc1cc(-c2nn([C@H]3CC[C@H](N4CCN(C(C)=O)CC4)CC3)c3ncnc(N)c23)ccc1NC(=O)c1cc2ccccc2n1C + CC(=O)Nc1cccc(-n2c(=O)n(C3CC3)c(=O)c3c(Nc4ccc(I)cc4F)n(C)c(=O)c(C)c32)c1 [Trametinib] (partner 0.02 µM)
Method in brief: as §2

Cell Line: PC-3 [JPC-3]
- relative viability ([1]; 0.0128 µM): 1.01
- relative viability ([1]; 0.04048 µM): 1.09
- relative viability ([1]; 0.128 µM): 1.01
- relative viability ([1]; 1.28 µM): 1.09
- relative viability ([2]; 0.01 µM): 0.991
- relative viability ([2]; 0.03162 µM): 0.907
- relative viability ([2]; 0.1 µM): 1.07
- relative viability ([2]; 0.3162 µM): 1.1
- relative viability ([3]; first compound 0.01 µM): 0.787
- relative viability ([3]; first compound 0.03162 µM): 0.623
- relative viability ([3]; first compound 0.1 µM): 0.785
- relative viability ([3]; first compound 0.3162 µM): 0.789
- relative viability ([4]; first compound 0.0128 µM): 0.444
- relative viability ([4]; first compound 0.04048 µM): 0.444
- relative viability ([4]; first compound 0.128 µM): 0.431
- relative viability ([4]; first compound 1.28 µM): 0.462
- relative viability ([5]; first compound 0.0128 µM): 0.746
- relative viability ([5]; first compound 0.04048 µM): 0.705
- relative viability ([5]; first compound 0.128 µM): 0.678
- relative viability ([5]; first compound 1.28 µM): 0.802
